Results reported in US11345712B2, “Protein-targeting compounds and pharmaceutical compositions thereof, and their therapeutic applications” (BioTheryX, Inc., priority 2019, dated 2022).

Legend:
IKAROS = biological target: T1, IKAROS (Homo sapiens, UniProt Q13422+Q96SW2); assay: Protein degradation assay (Western blot) in MV-4-11 cells: IKAROS; type: cell-based; details: 6-8 h, compound concentration 0.1 μM
T1 construct: Whole cell extracts were prepared using a radioimmunoprecipitation assay (RIPA) buffer; endogenous in cells; host or cells: MV-4-11
Procedure: (§1) MV-4-11 cells were grown in RPMI 1640 media supplemented with 10% fetal bovine serum, streptomycin, and penicillin. The cells were cultured at approximately 10^6 cells per mL and incubated in DMSO or a compound for 6-8 h. Whole cell extracts were prepared using a radioimmunoprecipitation assay (RIPA) buffer. Briefly, 3×10^6 cells were washed once in PBS, and the cell pellets were resuspended in the RIPA buffer and incubated for 15 min on ice. Cells debris was removed by centrifugation and the cleared whole cell lysates were transferred to new tubes for further analysis.
(§2) For Western blot analysis, whole cell protein extracts were separated on 4-12% SDS-polyacrylamide gels, transferred to nitrocellulose, and probed with primary antibodies. Membranes were subsequently washed and probed with IRDYE® secondary antibodies. The signal was detected using an ODYSSEY® Imaging System.
(§3) The following antibodies were used in the assays described herein: anti-eRF3/GSPT1: Abcam, ab126090 (Cambridge, Mass.); anti-Ikaros: Abcam, ab191394 (Cambridge, Mass.); anti-CK1α: Abcam, ab108296 (Cambridge, Mass.); β-actin (8H10D10) mouse monoclonal antibody: Cell Signaling Technology, #3700 (Danvers, Mass.); IRDYE® 680RD goat anti-rabbit antibody: LI-COR, 926-68071 (Lincoln, Nebr.); and IRDYE® 800CW goat anti-mouse antibody: LI-COR, 926-32210 (Lincoln, Nebr.).
(§4) The protein degradation results are summarized in Table 1, wherein A represents a value no less than 80%, B represents a value less than 80% but no less than 50%, C represents a value less than 50% but no less than 25%, and D represents a value less than 25% protein degradation at a compound concentration of 0.1 μM.

IL-1β = assay: Cytokine modulation assay, LPS-induced PBMCs or CD14+ monocytes: IL-1β; type: cell-based; details: 100 ng/mL LPS 18-24 h; for inhibition at 0.1 µM: 0.1 μM compound; for inhibition at 1 µM: 1 μM compound
Procedure: (§5) Frozen primary blood mononuclear cells (PBMCs) or frozen CD14+ mobilized peripheral blood monocytes were quick thawed, washed once with RPMI-1640 (10% FBS/1% Pen-Strep), and plated in 96 well plates at 200,000 cells per well. The cells were pretreated with DMSO only or with a compound for 1 h and then induced with 100 ng/mL lipopolysaccharide (LPS) for 18-24 h. The supernatant was analyzed for IL-1β, IL-6, and TNFα using Meso Scale assays. The negative control wells were treated with DMSO.

TNF-α = assay: Cytokine modulation assay, LPS-induced PBMCs or CD14+ monocytes: TNFα; type: cell-based; details: 100 ng/mL LPS 18-24 h; for inhibition at 0.1 µM: 0.1 μM compound; for inhibition at 1 µM: 1 μM compound
Procedure: as §5

IL-2 = IL-2 analysis in anti-CD3 stimulated PBMCs; type: cell-based, human; details: 0.01 μM compound, PBMCs on anti-CD3 coated plates, 24 h
Procedure: For the IL-2 analysis, 96 well plates were precoated with 1 μg/mL anti-human CD3 antibody (OKT3, eBioscience Inc., San Diego, Calif.). After washed with PBS, the compound was added (50 μL/well), followed by addition of PBMCs diluted at 3-4 million cells/mL (150 μL/well). The plates were incubated for 24 h and the supernatants were collected for IL-2 analysis. IL-2 activity was measured as fold difference from the DMSO control. At a concentration of 0.01 μM, compounds I-1 and I-3 stimulated IL-2 production with 3.7 and 3.9 fold change, respectively, over the DMSO control.

MOLM-13 cells = assay: MOLM-13 cell viability assay (CellTiter-Glo); type: cell-based; details: 3 days, concentration of 1 μM; for cytotoxicity at 1 µM: Homo sapiens, MOLM-13, 72 h, read-out: Antiproliferative Activity (inhibition, MOLM-13 cell viability)
How it was run: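 Luminescent ATP read-out (CellTiter-Glo, 10 min with shaking) after 3-day compound or DMSO exposure at 37° C, 5% CO2. Cells plated at 2,500/well in RPMI 1640 plus 10% FBS.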

CK1α = biological target: T2, CK1α (Homo sapiens, UniProt P48729+Q96SW2); assay: Protein degradation assay (Western blot) in MV-4-11 cells: CK1α; type: cell-based; details: 6-8 h, compound concentration 0.1 μM
T2 construct: Whole cell extracts were prepared using a radioimmunoprecipitation assay (RIPA) buffer; endogenous in cells; host or cells: MV-4-11
Procedure: as §1, §2, §3, §4

GSPT1 = biological target: T3, GSPT1 (Homo sapiens, UniProt P15170+Q96SW2); assay: Protein degradation assay (Western blot) in MV-4-11 cells: GSPT1; type: cell-based; details: 6-8 h, compound concentration 0.1 μM
T3 construct: Whole cell extracts were prepared using a radioimmunoprecipitation assay (RIPA) buffer; endogenous in cells; host or cells: MV-4-11
Procedure: as §1, §2, §3, §4

IL-6 = assay: Cytokine modulation assay, LPS-induced PBMCs or CD14+ monocytes: IL-6; type: cell-based; details: 0.1 μM compound, 100 ng/mL LPS 18-24 h
Procedure: as §5

THLE-2 cells = assay: THLE-2 cell viability assay (CellTiter-Glo); type: cell-based; details: Homo sapiens, 72 h, 3 days
Procedure: THLE-2 cells were cultured using BEGM™ BULLETKIT™ supplemented with 10% fetal bovine serum, streptomycin, and penicillin. The cells were plated in white walled 96-well plates at 5,000 cells/well. After the cells were incubated in DMSO (control) or a compound for 3 days at 37° C. and 5% CO2, 100 μL of CELLTITER-GLO® (CTG) was added to each well. Following a 10 minutes incubation with shaking, luminescence was measured using an ENVISION® Multimode plate reader. In this example, compound II-1 was compared to reference compound A: […]

T1 sequence (Q13422 whole entry): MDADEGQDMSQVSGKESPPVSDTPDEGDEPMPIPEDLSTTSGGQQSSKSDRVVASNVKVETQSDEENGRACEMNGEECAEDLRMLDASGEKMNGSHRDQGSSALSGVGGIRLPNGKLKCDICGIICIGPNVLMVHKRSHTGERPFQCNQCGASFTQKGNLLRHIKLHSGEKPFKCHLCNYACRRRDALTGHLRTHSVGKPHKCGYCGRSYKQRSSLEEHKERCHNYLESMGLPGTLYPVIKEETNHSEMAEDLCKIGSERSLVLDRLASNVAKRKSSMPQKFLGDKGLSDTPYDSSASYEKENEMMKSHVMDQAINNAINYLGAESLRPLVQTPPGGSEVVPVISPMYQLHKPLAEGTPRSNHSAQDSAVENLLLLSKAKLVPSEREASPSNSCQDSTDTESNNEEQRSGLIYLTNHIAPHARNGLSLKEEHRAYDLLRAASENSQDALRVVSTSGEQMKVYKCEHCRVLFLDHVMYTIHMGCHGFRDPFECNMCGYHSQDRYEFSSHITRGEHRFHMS
T1 sequence (Q96SW2 whole entry): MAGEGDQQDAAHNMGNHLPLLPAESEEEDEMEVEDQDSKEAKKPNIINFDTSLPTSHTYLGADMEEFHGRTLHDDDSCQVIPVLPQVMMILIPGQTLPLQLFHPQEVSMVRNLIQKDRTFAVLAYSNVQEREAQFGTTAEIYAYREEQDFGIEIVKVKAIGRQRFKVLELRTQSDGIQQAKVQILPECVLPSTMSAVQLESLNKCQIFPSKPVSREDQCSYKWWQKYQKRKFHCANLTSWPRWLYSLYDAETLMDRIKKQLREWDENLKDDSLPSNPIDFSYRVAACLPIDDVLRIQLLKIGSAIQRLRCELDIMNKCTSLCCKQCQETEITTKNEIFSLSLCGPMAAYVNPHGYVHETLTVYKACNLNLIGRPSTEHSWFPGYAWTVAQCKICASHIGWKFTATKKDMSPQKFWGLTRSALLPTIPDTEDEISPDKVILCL
T1 sequence (Q16531 whole entry partner): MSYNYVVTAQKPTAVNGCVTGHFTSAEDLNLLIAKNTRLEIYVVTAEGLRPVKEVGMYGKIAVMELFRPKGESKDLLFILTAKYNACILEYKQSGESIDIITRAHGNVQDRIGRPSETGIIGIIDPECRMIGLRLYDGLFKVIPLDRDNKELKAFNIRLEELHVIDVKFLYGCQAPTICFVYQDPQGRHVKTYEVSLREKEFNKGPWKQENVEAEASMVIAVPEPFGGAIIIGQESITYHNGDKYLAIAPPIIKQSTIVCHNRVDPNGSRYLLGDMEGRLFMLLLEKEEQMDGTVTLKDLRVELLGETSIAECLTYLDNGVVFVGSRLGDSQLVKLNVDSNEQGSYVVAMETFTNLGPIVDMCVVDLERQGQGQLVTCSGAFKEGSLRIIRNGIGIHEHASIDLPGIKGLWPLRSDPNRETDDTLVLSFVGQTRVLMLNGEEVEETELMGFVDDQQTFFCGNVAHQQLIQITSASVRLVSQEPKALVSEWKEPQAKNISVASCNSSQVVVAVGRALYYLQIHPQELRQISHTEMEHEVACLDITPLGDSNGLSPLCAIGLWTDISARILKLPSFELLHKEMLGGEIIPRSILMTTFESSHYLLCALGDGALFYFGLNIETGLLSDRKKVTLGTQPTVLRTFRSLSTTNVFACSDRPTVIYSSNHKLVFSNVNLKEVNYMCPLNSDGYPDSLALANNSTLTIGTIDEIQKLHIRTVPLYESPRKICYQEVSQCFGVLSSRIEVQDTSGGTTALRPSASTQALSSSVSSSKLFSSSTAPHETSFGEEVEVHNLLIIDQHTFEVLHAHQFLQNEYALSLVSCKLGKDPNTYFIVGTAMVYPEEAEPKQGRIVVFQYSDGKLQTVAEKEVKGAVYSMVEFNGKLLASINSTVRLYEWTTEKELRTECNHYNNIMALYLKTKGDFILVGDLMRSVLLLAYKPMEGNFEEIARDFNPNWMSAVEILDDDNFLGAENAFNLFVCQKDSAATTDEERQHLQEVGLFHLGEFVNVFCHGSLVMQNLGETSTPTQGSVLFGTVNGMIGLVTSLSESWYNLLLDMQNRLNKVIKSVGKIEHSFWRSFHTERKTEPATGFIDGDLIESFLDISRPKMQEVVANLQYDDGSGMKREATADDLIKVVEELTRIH
T3 sequence (P15170 whole entry): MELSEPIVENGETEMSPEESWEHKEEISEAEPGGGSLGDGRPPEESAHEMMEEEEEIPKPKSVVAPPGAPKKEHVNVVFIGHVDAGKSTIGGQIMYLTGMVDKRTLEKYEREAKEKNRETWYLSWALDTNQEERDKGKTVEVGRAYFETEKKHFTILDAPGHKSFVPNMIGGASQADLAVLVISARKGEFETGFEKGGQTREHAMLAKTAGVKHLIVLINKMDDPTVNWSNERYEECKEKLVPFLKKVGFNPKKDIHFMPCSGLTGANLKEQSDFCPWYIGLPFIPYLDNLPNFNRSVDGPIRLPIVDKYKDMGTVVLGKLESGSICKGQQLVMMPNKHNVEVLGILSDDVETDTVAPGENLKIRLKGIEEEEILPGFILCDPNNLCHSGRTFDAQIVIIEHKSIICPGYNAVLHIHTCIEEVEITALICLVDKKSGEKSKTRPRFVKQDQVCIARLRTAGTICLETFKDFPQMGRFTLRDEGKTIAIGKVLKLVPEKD
T3 sequence (Q96SW2 whole entry): as the sequence (Q96SW2 whole entry) above
T3 sequence (Q16531 whole entry partner): as the sequence (Q16531 whole entry partner) above
T2 sequence (P48729 whole entry): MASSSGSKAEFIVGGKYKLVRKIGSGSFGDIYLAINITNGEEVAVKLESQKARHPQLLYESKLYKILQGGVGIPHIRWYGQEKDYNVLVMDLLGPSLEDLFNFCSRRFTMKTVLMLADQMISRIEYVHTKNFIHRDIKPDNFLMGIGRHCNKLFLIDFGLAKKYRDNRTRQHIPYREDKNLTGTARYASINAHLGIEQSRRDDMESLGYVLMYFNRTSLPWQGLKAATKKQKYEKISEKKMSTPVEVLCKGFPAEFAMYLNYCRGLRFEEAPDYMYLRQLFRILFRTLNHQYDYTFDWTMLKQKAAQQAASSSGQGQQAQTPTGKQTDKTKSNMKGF
T2 sequence (Q96SW2 whole entry): as the sequence (Q96SW2 whole entry) above
T2 sequence (Q16531 whole entry partner): as the sequence (Q16531 whole entry partner) above

Structure (SMILES)	Protein Degradation IKAROS (IKAROS)	inhibition at 0.1 µM (IL-1β) [%]	inhibition at 0.1 µM (TNF-α) [%]	IL-2 production, fold change over the DMSO control (IL-2) [fold]	Antiproliferative Activity (inhibition, MOLM-13 cell viability) (MOLM-13 cells)	Protein Degradation CK1α (CK1α)	Protein Degradation GSPT1 (GSPT1)	inhibition at 0.1 µM (IL-6) [%]	cytotoxicity at 1 µM (MOLM-13 cells) [%]	inhibition at 1 µM (IL-1β) [%]	inhibition at 1 µM (TNF-α) [%]	IC50 (THLE-2 cells) [µM]
CC(C)(C)c1ccc(C(=O)C(=O)NCc2scc3c2CN(C2CCC(=O)NC2=O)C3=O)cc1 (centres unmarked) [Compound I-1, 2-(4-(tert-butyl)phenyl)-N-((5-(2,6-dioxopiperidin-3-yl)-4-oxo-5,6-dihydro-4H-thieno[3,4-c]pyrrol-1-yl)methyl)-2-oxoacetamide]	A (a value no less than 80%)	> 80	> 80	3.7	A (a value no less than 80%)	B (a value less than 80% but no less than 50%)	B (a value less than 80% but no less than 50%)	50 to 80	–	–	–	–
CC(C)(C)c1ccc(C(=O)C(=O)NCc2ccc3c(c2)CN(C2CCC(=O)NC2=O)C3=O)cc1 (centres unmarked) [Compound I-2, 2-(4-(tert-butyl)phenyl)-N-((2-(2,6-dioxopiperidin-3-yl)-1-oxoisoindolin-5-yl)methyl)-2-oxoacetamide]	A (a value no less than 80%)	–	–	–	–	B (a value less than 80% but no less than 50%)	A (a value no less than 80%)	–	> 80	–	–	–
O=C1CCC(N2Cc3c(csc3CNC(=O)C(=O)c3ccc(C4(C(F)(F)F)CC4)cc3)C2=O)C(=O)N1 (centres unmarked) [Compound I-3, N-((5-(2,6-dioxopiperidin-3-yl)-4-oxo-5,6-dihydro-4H-thieno[3,4-c]pyrrol-1-yl)methyl)-2-oxo-2-(4-(1-(trifluoromethyl)cyclopropyl)phenyl)acetamide]	A (a value no less than 80%)	> 80	> 80	3.9	–	A (a value no less than 80%)	B (a value less than 80% but no less than 50%)	25 to 50	> 80	> 80	> 80	–
CC(C)c1ccc(C(=O)C(=O)NCc2scc3c2CN(C2CCC(=O)NC2=O)C3=O)s1 (centres unmarked) [Compound I-4, N-((5-(2,6-dioxopiperidin-3-yl)-4-oxo-5,6-dihydro-4H-thieno[3,4-c]pyrrol-1-yl)methyl)-2-(5-isopropylthiophen-2-yl)-2-oxoacetamide]	A (a value no less than 80%)	> 80	> 80	–	–	–	C (a value less than 50% but no less than 25%)	–	> 80	> 80	> 80	–
O=C1CCC(N2Cc3cc(CNC(=O)C(=O)c4ccc(C5(C(F)(F)F)CC5)cc4)ccc3C2=O)C(=O)N1 (centres unmarked) [Compound I-5, N-((2-(2,6-dioxopiperidin-3-yl)-1-oxoisoindolin-5-yl)methyl)-2-oxo-2-(4-(1-(trifluoromethyl)cyclopropyl)phenyl)acetamide]	A (a value no less than 80%)	–	–	–	–	C (a value less than 50% but no less than 25%)	A (a value no less than 80%)	–	> 80	–	–	–
Cc1ccc(NC(=O)NCc2cc3c(s2)C(=O)N(C2CCC(=O)NC2=O)C3)cc1N(C)C (centres unmarked) [II-1, 1-(3-(dimethylamino)-4-methylphenyl)-3-((5-(2,6-dioxopiperidin-3-yl)-6-oxo-5,6-dihydro-4H-thieno[2,3-c]pyrrol-2-yl)methyl)urea]	–	–	–	–	–	–	B (a value less than 80% but no less than 50%)	–	> 80	25 to 50	25 to 50	8.9
O=C1CCC(N2Cc3cc(CNC(=O)C(F)(F)c4ccc(C5(C(F)(F)F)CC5)cc4)ccc3C2=O)C(=O)N1 (centres unmarked) [II-164, N-((2-(2,6-dioxopiperidin-3-yl)-1-oxoisoindolin-5-yl)methyl)-2,2-difluoro-2-(4-(1-(trifluoromethyl)cyclopropyl)phenyl)acetamide]	–	–	–	–	–	–	–	–	> 80	–	–	–
O=C1CCC(N2Cc3c(csc3CNC(=O)C(F)(F)c3ccc(C4(C(F)(F)F)CC4)cc3)C2=O)C(=O)N1 (centres unmarked) [II-165, N-((5-(2,6-Dioxopiperidin-3-yl)-4-oxo-5,6-dihydro-4H-thieno[3,4-c]pyrrol-1-yl)methyl)-2,2-difluoro-2-(4-(1-(trifluoromethyl)cyclopropyl)phenyl)acetamide]	–	–	–	–	–	–	–	–	< 25	–	–	–
Cc1ccc(NC(=O)NCc2cc3c(s2)C(=O)N(C2CCC(=O)NC2=O)C3)cc1Cl (centres unmarked) [reference compound A, reference compound]	–	–	–	–	–	–	–	–	–	–	–	0.8
